Where a name gives a salt, the structure may show the parent alone.

A word on the EC50: it is the concentration needed to bring the measured effect to its halfway point. As a reminder, the IC50 is the concentration at which inhibition is half-maximal. Read a low IC50 as greater potency in that assay.

Assay [1] has as its system Cdc2 (Cdk1) tyrosine 15-phosphorylation in WiDr cells. Put plainly: Cdc2 (Cdk1) tyrosine 15-phosphorylation-inhibitory effect in gemcitabine-treated WiDr cells (ELISA). The class given is cell-based. The following applies: Homo sapiens, gemcitabine 100 nM 24 hours, then test compound + nocodazole 8 hours, read-out: Cdc2-Y15 Phosphorylation-Inhibitory Effect (WiDr, + gemcitabine) (EC50). The source says: Pharmacological Test 2 (Method of Determining Drug Potency with Cells (Cdc2 (Cdk1) Tyrosine 15-Phosphorylation-Inhibitory Effect))
Fetal bovine serum (FBS) was obtained from Morgate; media RPMI1640 and DMEM were from Invitrogen; camptothecin was from Sigma; gemcitabine was from Nippon Eli Lilly; nocodazole and protease inhibitor cocktail were from Sigma; rabbit anti-Cdc2 antibody and mouse anti-Cdc2 antibody were from Santa Cruz Biotechnology; rabbit anti-tyrosine 15-phosphorylated Cdc2 antibody and horseradish peroxidase-labeled anti-mouse IgG antibody were from Cell Signaling Technology; sure blue reserve TMB peroxidase substrate was from Kirkegaard and Perry Laboratories.
Human non-small cell lung cancer cells (NCI-H1299) and human colon cancer cells (WiDr) were obtained from American Type Culture Collection (ATCC).
In the method of using WiDr cells, the cells were suspended in a medium of 10% FBS-added DMEM, and the cell suspension was applied to a 96-well Nunclondelta-processed plastic plate in an amount of 2000 cells/100 μL/well, in which the cells were incubated overnight in 5% CO2-95% air at 37° C. […] Cdc2 was determined through ELISA as follows: A rabbit anti-Cdc2 antibody solution, which had been diluted 200-fold with 50 mM carbonate-bicarbonate buffer (pH 9.6), was applied to a 96-well maxisorp plastic plate in an amount of 50 μL/well, and statically kept overnight at 4° C. so as to fix the antibody on the plate. […] Then, 1 M hydrochloric acid was added to it in an amount of 100 μL/well to stop the reaction, and this was analyzed through colorimetry. Tyrosine 15-phosphorylated Cdc2 was determined through ELISA as follows: A rabbit anti-tyrosine 15-phosphorylated Cdc2 antibody solution, which had been diluted 100-fold with 50 mM carbonate-bicarbonate buffer (pH 9.6), was applied to a 96-well maxisorp plastic plate in an amount of 50 μL/well, and statically kept overnight at 4° C. so as to fix the antibody on the plate. […]

The target of assay [2] is T1, Wee1 kinase (Homo sapiens, UniProt P30291).
T1 construct: made in house; host or cells: Sf9 insect cells (recombinant baculovirus)
T1 sequence (P30291 whole entry): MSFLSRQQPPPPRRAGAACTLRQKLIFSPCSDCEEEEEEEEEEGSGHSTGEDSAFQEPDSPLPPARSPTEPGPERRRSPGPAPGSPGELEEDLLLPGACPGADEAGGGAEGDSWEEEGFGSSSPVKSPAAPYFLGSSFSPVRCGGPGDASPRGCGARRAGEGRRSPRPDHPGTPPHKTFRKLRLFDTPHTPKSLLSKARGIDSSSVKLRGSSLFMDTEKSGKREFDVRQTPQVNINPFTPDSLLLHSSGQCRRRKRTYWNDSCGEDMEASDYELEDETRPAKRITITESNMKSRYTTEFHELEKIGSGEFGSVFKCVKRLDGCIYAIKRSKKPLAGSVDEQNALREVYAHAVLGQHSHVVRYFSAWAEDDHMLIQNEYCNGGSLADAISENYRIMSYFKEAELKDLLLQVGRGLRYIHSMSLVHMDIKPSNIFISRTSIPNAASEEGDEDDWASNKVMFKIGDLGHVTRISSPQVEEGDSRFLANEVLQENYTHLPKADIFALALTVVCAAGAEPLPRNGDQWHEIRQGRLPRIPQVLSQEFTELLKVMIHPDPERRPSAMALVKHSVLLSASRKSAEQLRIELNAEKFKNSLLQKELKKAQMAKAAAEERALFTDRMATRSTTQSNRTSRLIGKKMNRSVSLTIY
Briefly: Wee1 kinase-inhibitory effect (33P-ATP, Poly(Lys,Tyr) substrate, filter assay). Format: biochemical. The settings on record: 10 μM ATP, 30° C., 30 minutes. From the text: Pharmacological Test 1 (Wee1 Kinase-Inhibitory Effect)
(1) Purification of Wee1 Kinase:
A cDNA of Wee1 kinase with […] (GST) fused at the amino terminal thereof was inserted into a baculovirus expression vector to construct a recombinant baculovirus, with which cells of an insect cell line Sf9 were infected for high expression therein. The infected cells were recovered and solubilized, and then the GST-tagged Wee1 kinase protein was adsorbed by a glutathion column, and eluted from the column with glutathion, and the active fraction was desalted in a desalting column to give a purified enzyme.
(2) Determination of Wee1 Kinase Activity:
In determination of the Wee1 kinase activity, a synthetic peptide, Poly(Lys,Tyr) Hydrobromide (Lys:Tyr (4:1)) bought from Sigma was used as the substrate.
The amount of the reaction liquid was 21.1 μL; and the composition of the reaction buffer was 50 mM Tris-HCl buffer (pH 7.4)/10 mM magnesium chloride/1 mM dithiothreitol. The purified Wee1 kinase, 2.5 μg of the substrate peptide, 10 μM of non-labeled adenosine triphosphate (ATP) and 1 μCi of [γ-^33P]-labeled ATP (2500 Ci/mmol or more) were added to it, and reacted at 30° C. for 30 minutes. Next, 10 μL of 350 mM phosphate buffer was added to the reaction system to stop the reaction. The substrate peptide was adsorbed by a P81 paper filter 96-well plate, then washed a few times with 130 mM phosphate buffer, and its radioactivity was counted with a liquid scintillation counter. The [γ-^33P]-labeled ATP was bought from Amersham Bioscience.
To add the test compound to the reaction system, the compound was diluted with dimethylsulfoxide (DMSO) to prepare a series of dilutions. 1.1 μL of each dilution was added to the reaction system. As a control, 1.1 μL of DMSO was added to the reaction system.

As for `CN1Cc2cc(Nc3ncc4c(=N)n(-c5c(Cl)cccc5Cl)c(=O)[nH]c4n3)ccc2C2(CC2)C1` [Example 1, 3-(2,6-dichlorophenyl)-4-imino-7-[(2′-methyl-2′,3′-dihydro-1′H-spiro[cyclopropane-1,4′-isoquinolin]-7′-yl)amino]-3,4-dihydropyrimido[4,5-d]pyrimidin-2(1H)-one dihydrochloride], the EC50 in assay [1] came to 0.021 µM. Further, the 50% inhibitory concentration (IC50) in assay [2] is 0.005 µM.
In the same order, the values of `CN1Cc2cc(Nc3ncc4c(=N)n(-c5c(Cl)cccc5Cl)c(=O)[nH]c4n3)ccc2C(C)(C)C1` [Example 2, 3-(2,6-dichlorophenyl)-4-imino-7-{[2,4,4-trimethyl-1,2,3,4-tetrahydroisoquinolin-7-yl]amino}-3,4-dihydropyrimido[4,5-d]pyrimidin-2(1H)-one] are 0.046 µM and 0.0056 µM.
As for `CN1Cc2cc(Nc3ncc4c(=N)n(-c5c(Cl)cccc5Cl)c(=O)[nH]c4n3)ccc2C1(C)C` [Example 7, 3-(2,6-dichlorophenyl)-4-imino-7-[(1,1,2-trimethyl-2,3-dihydro-1H-isoindol-5-yl)amino]-3,4-dihydropyrimido[4,5-d]pyrimidin-2(1H)-one], the EC50 in assay [1] came out at 0.024 µM. In assay [2], this compound gave an IC50 of 0.0043 µM.
